From US11814371B2, “Heterocyclic compound” (MEDSHINE DISCOVERY INC., priority 2020, dated 2023) come the findings set out here.

pIC50: −log10 of the molar value. Where a name gives a salt, the structure may show the parent alone. Read-outs that look alike come from different tables or passages of the source.

The target in data set [1] is T1, recombinant human plasma kallikrein (Human PKal) (Homo sapiens, UniProt P03952).
T1 construct: Gly20-Ala638 derived from NS0- with a 60-His appendage at the C-terminus; His tag ('60-His' [sic]) (C); purchased R&D Systems 2497-SE; host or cells: mouse myeloma cell line NS0
As to the kind of experiment: Inhibitory effect of test compounds on plasma kallikrein (PKal), fluorogenic substrate Z-FR-AMC. The class given is biochemical. To be noted: 10 µM Z-FR-AMC, 10 min pre-incubation. The method, then:
1. PKal reaction buffer: 25 mM Tris-HCl (trometamol-HCl), pH 8.0, 100 mM NaCl, […], 0.01 % Brij35 (polyoxyethylene lauryl ether), and 1 % DMSO (final concentration).
2. Enzyme: PKal (R&D Systems Cat# 2497-SE), recombinant human plasma kallikrein expressed in a mouse myeloma cell line, Gly20-Ala638 derived from NS0- with a 60-His appendage at the C-terminus, MW=70 kDa. Activation of the enzyme: (1) rhPKal was diluted to 200 µg/mL activation buffer (100 mM Tris, 10 mM CaCl2, 150 mM NaCl, pH 7.5 (TCN)); (2) thermolysin was diluted to 20 µg/mL activation buffer; (3) rhPKal (200 µg/mL) and thermolysin (20 µg/mL) were mixed in equal volumes; (4) the mixture was incubated at 37° C. for 30 min; (5) then the reactions was stopped with 50 µM EDTA (ethylenediaminetetraacetic acid).
3. Substrate (Enzo Cat# P-139): 10 µM Z-FR-AMC (AMC: 7-amino-4-methylcoumarin).
4. Detection: EnVision (PE), Ex/Em 355/460 nm.
5. Reaction process: (1) The specified enzymes and substrates were prepared in freshly prepared activation buffer; (2) the enzyme solution was injected into the reaction hole; (3) the DMSO solution of the test compound was injected into the reaction mixture, and controlled within the nanoliter range using acoustic technology (Echo 550, LabCyte Inc. Sunnyvale, CA); (4) after 10 min of pre-incubation, the substrate solution was injected into the reaction hole to start the reaction; (5) the activity of the enzyme could be indicated by the increase of the fluorescence signal of the fluorescent labeled peptide substrate, which was monitored every 5 min and lasted for 120 min at room temperature; (6) data analysis: the slope* (fluorescence signal/time) of the straight line was measured, then the slope could be calculated by excel and the curve could be fitted by Prism software.

A short description of data set [2]: Pharmacokinetic test in rats after intravenous and intragastric administration (plasma, LC-MS/MS). In kind it is in vivo. Particulars: male, SD, rat; for bioavailability: read-out: Bioavailability F; for AUC(0-inf): read-out: Curve area (o-inf) AUC0-inf; for AUC(0-t): read-out: Curve area (o-t) AUC0-last; for half-life: read-out: Half-life T½ (converted); for Tmax: read-out: Peak time Tmax; for Cmax: read-out: Plasma drug concentration Cmax; for Vd: read-out: Apparent volume of distribution Vdss; for clearance: read-out: Clearance rate Cl. On the procedure: Male SD rats were used as test animals, and LC-MS/MS method was used to determine the drug concentrations in plasma of rats at different times after intravenous and intragastric administration of test compounds. The pharmacokinetic behaviors of the compounds in rats were studied and the pharmacokinetic characteristics were evaluated.
2.2 Test animals: 28 healthy adult male SD rats were divided into 14 groups with 2 rats in each group. Animals were purchased from Beijing Vital River Laboratory Animal Technology Co., Ltd.
An appropriate amount of sample was weighed, and an appropriate amount of DMSO, polyoxyethylene castor oil and sterile water for injection were added in sequence according to the volume ratio of 10:10:80, then the mixture was stirred and sonicated to reach a clear state of 0.5 mg/mL for intravenous administration.
An appropriate amount of sample was weighed, and an appropriate amount of DMSO, polyoxyethylene castor oil and sterile water for injection were added in sequence according to the volume ratio of 10:10:80, then the mixture was stirred and sonicated to reach a clear or suspension state of 0.4 mg/mL for intragastric administration.
An appropriate amount of sample was weighed, and an appropriate amount of DMSO, polyoxyethylene castor oil and sterile water for injection were added in sequence according to the volume ratio of 10:10:80, then the mixture was stirred and sonicated to reach a clear state of 3 mg/mL for intravenous administration.
2.4 Administration: 28 male SD rats were divided into 14 groups, after fasting for one night, the intravenous administration group was administered with an administration volume of 2 mL/kg and a dose of 1 mg/kg; the intragastric administration group 1 was administered with an administration volume of 5 mL/kg and a dose of 2 mg/kg. The intragastric administration group 2 was administered with an administration volume of 10 mL/kg and a dose of 30 mg/kg.
After the compound was administered intravenously to male SD rats, 40 µL of blood was collected at 0.0833, 0.25, 0.5, 1, 2, 4, 8 and 24 hours, respectively, and placed in tubes containing 2 µL of EDTA-K2. After the compound was administered in the intragastric administration group, 40 µL of blood was collected at 0.25, 0.5, 1, 2, 4, 6, 10 and 24 hours, respectively, and placed in tubes containing 2 µL of EDTA-K2. The tubes were centrifuged at 4000 rpm for 15 minutes to separate the plasma, and stored at -60° C. Animals were allowed to eat 2 hours after administration.
LC-MS/MS method was used to determine the content of the test compounds in the plasma of rats after intravenous and intragastric administration. The linear range of the method was 2.00 - 6000 nmol/L; plasma samples were treated with acetonitrile to precipitate protein, and then analyzed.

Where [3] appears, read: po, intragastric administration (group 1), nominal 2 mg/kg (actual dose in c2).
Setting [4] is: intravenous administration, nominal 1 mg/kg (actual dose in c2).
Where [5] appears, read: po, intragastric administration (group 2), nominal 30 mg/kg (actual dose in c2).

T1 sequence (P03952 20-638): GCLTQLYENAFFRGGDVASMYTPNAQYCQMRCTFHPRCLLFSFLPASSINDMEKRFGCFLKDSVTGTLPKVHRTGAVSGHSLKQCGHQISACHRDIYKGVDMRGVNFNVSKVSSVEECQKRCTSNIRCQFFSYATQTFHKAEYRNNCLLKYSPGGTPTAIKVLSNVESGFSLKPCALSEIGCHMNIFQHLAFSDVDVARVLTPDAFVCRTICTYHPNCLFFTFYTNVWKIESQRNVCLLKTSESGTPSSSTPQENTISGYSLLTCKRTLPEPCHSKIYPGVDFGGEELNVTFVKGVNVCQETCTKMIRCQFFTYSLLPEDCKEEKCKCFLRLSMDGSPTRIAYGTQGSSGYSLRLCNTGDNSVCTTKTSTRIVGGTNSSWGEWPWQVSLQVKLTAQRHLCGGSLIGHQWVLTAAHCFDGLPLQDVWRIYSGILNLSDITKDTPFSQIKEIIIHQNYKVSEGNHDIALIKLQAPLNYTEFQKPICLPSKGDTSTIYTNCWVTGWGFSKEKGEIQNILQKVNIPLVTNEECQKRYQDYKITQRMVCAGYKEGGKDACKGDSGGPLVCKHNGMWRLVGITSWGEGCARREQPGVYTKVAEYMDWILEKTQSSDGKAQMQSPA

On to `COc1ccc(F)c(CNC(=O)c2cn(Cc3ccc(Cn4ccccc4=O)cc3)nc2C2COC2)c1F` [Compound 16], for which, in data set [1], the pIC50 was 9.21. In data set [2] (setting [3]), the bioavailability came to 22.1%, the AUC(0-inf) worked out at 1.94 µM·h, the AUC(0-t) was 1.93 µM·h and the half-life is 136 min. Moreover, in data set [2] (setting [3]), the Tmax was 45 min and the Cmax turned out to be 1140 nM. Besides, in data set [2] (setting [4]), the Vd is 0.2 L/kg, the clearance stood at 7.3 mL/min/kg, the AUC(0-inf) is 4.39 µM·h and the AUC(0-t) was 4.37 µM·h. The half-life in data set [2] (setting [4]) is 35.8 min.

Regarding `COc1ccc(Cl)c(CNC(=O)c2cn(Cc3ccc(Cn4cc(F)ccc4=O)cc3)nc2C2COC2)c1F` [Compound 3], in data set [1], the pIC50 was 9.58. Besides, in data set [2] (setting [3]), the bioavailability was 19.3%, the AUC(0-inf) was 2.12 µM·h, the AUC(0-t) came to 2.11 µM·h and the half-life is 82.2 min. Besides, in data set [2] (setting [3]), the time to peak (Tmax) was found to be 30 min and the Cmax was found to be 1760 nM. For the same compound, in data set [2] (setting [4]), the Vd was found to be 0.169 L/kg, the clearance came out at 7.85 mL/min/kg, the AUC(0-inf) was determined as 5.5 µM·h and the AUC(0-t) was found to be 5.49 µM·h. Besides, in data set [2] (setting [4]), the half-life is 42.8 min.

With `COc1ccc(F)c(CNC(=O)c2cn(Cc3ccc(Cn4cc(F)ccc4=O)cc3)nc2C2(C)COC2)c1F` [Compound 10], the negative logarithm of the IC50 (pIC50) in data set [1] was 9.46.

As to `COc1ccc(F)c(CNC(=O)c2cn(Cc3ccc(Cn4ccccc4=O)cn3)nc2C2COC2)c1F` [Compound 5], in data set [1], the negative-log IC50 (pIC50) is 7.73.

With `COc1ccnc(CNC(=O)c2cn(Cc3ccc(Cn4cc(F)ccc4=O)cc3)nc2C2CN(CC(F)(F)F)C2)c1F` [Compound 15], in data set [1], the pIC50 was 8.65.

Consider `COc1ccc(F)c(CNC(=O)c2cn(Cc3ccc(Cn4ccccc4=O)cc3)nc2C2CN(S(C)(=O)=O)C2)c1F` [Compound 14], for which the negative logarithm of the IC50 (pIC50) in data set [1] is 9.14.

`COc1ccc(F)c(CNC(=O)c2cn(Cc3ccc(Cn4cc(F)ccc4=O)nc3)nc2C2COC2)c1F` [Compound 6]: the negative logarithm of the IC50 (pIC50) in data set [1] is 8.58. Also, in data set [2] (setting [3]), the AUC(0-inf) came out at 0.661 µM·h, the AUC(0-t) was determined as 0.653 µM·h, the half-life was 140 min and the Tmax was determined as 22.2 min. In addition, the Cmax in data set [2] (setting [3]) stood at 650 nM.

With `COc1ccc(F)c(CNC(=O)c2cn(Cc3ccc(Cn4ccccc4=O)cc3)nc2C2CN(C(C)=O)C2)c1F` [Compound 13], in data set [1], the pIC50 was 9.08.

On to `COc1ccnc(CNC(=O)c2cn(Cc3ccc(Cn4cc(F)ccc4=O)cc3)nc2C2COC2)c1F` [Compound 2], for which, in data set [1], the pIC50 is 8.82. In data set [2] (setting [3]), the AUC(0-inf) was 0.246 µM·h, the AUC(0-t) worked out at 0.241 µM·h, the half-life was 26.2 min and the Tmax was found to be 15 min. Moreover, the Cmax in data set [2] (setting [3]) was 301 nM.

Take `COc1ccc(F)c(CNC(=O)c2cn(Cc3ccc(Cn4ccccc4=O)c(F)c3)nc2C2COC2)c1F` [Compound 7]: the pIC50 in data set [1] is 9.26. In data set [2] (setting [5]), the AUC(0-inf) came to 1.93 µM·h, the AUC(0-t) came out at 1.84 µM·h, the half-life was 157 min and the Tmax was 30 min. In addition, in data set [2] (setting [5]), the Cmax stood at 813 nM.

In the case of `COc1ccnc(CNC(=O)c2cn(Cc3ccc(Cn4cc(F)ccc4=O)c(F)c3)nc2C2COC2)c1F` [Hydrochloride of compound 18], in data set [1], the negative-log IC50 (pIC50) was 8.64.

Regarding `COc1ccnc(CNC(=O)c2cn(Cc3ccc(Cn4cc(F)ccc4=O)cc3)nc2C2(C)COC2)c1F` [Compound 9], the pIC50 in data set [1] is 8.99.

Take `COc1ccnc(CNC(=O)c2cn(Cc3ccc(Cn4ccccc4=O)cc3)nc2C2COC2)c1F` [Compound 17]: the negative logarithm of the IC50 (pIC50) in data set [1] was 10.28. Besides, in data set [2] (setting [3]), the AUC(0-inf) is 0.246 µM·h, the AUC(0-t) worked out at 0.237 µM·h, the half-life was 50.8 min and the Tmax stood at 30 min. Also, the Cmax in data set [2] (setting [3]) was 230 nM.

`COc1ccc(F)c(CNC(=O)c2cn(Cc3ccc(Cn4ccccc4=O)cc3)nc2C2CN(C)C2)c1F` [Hydrochloride of compound 12]: in data set [1], the negative-log IC50 (pIC50) is 8.97.

Take `COc1ccc(Cl)c(CNC(=O)c2cn(Cc3ccc(Cn4ccccc4=O)cc3)nc2C2COC2)c1F` [Compound 4]: the negative-log IC50 (pIC50) in data set [1] was 10.28. Also, in data set [2] (setting [3]), the bioavailability is 22.7%, the AUC(0-inf) came to 1.8 µM·h, the AUC(0-t) was found to be 1.79 µM·h and the half-life is 76.8 min. For the same compound, in data set [2] (setting [3]), the Tmax was found to be 22.2 min and the Cmax was found to be 1550 nM. Also, in data set [2] (setting [4]), the Vd was 0.182 L/kg, the clearance is 8.26 mL/min/kg, the AUC(0-inf) is 3.95 µM·h and the AUC(0-t) came out at 3.94 µM·h. Also, the half-life in data set [2] (setting [4]) was 36.3 min.

In the case of `COc1ccc(F)c(CNC(=O)c2cn(Cc3ccc(Cn4ccccc4=O)cc3)nc2C2CNC2)c1F` [Hydrochloride of compound 11], in data set [1], the pIC50 is 9.57.
